Measured values published in patent US11033597B2, “Dermatological kit comprising compositions based on hibiscus flower and buriti oil” (MEDICAL BRANDS RESEARCH B.V., priority 2014, dated 2021).
Entries after “also recorded” stand apart in the source; their conditions may differ.

Test system: human skin explants
Assay: Exfoliating action of plant extracts on human skin explants ex vivo (morphology of the stratum corneum)
Format: cell-based
Details: for Exfoliating activity, Result: day 4, compared to control group TJ
Procedure: Particular attention is paid to the morphology of the stratum corneum.
Activity is assessed by examination of the morphology.
The explants were stored in BEM (BIO-EC's Explants Medium) at 37° C. in a humid atmosphere enriched with 5% C02.
The test product is applied topically at a rate of 2 μl per explant, using a spatula to spread, on days 0, 2 and 3.
On day 0, the 3 explants of batch T0 were removed and cut into 2. One portion was fixated in a buffered formalin solution and the second part was frozen at −80° C. At Day 4, the 3 explants of each batch were taken and treated in the same manner.
After a fixation of 24 hours in buffered formalin, the samples were dried and soaked in paraffin using an automatic dehydration system, Leica TP 1020. They were embedded in a resin using a coating system Leica EG 1160.
Slices of 5 microns have been produced using a microtome type Minot Leica RM 2125 and mounted on microscope slides type histological SuperFrost®.
Microscopic observations were performed by optical microscopy, using a Leica Orthoplan microscope and an Olympus BX43. The shots were made with an Olympus DP72 camera and Cell ^ D software.
Paraffin sections were stained with Masson's trichrome stain, Goldner variant. Microscopic examination was carried out to assess the general morphology of the dermal and epidermal structures.
Particular attention was paid to the morphology of the Stratum Corneum.

O=C(O)c1ccccc1O [Product P1, Natural Salicylic Acid]
exfoliation of the upper layers of the stratum corneum (morphology) (0.25% (C3), day 4): appeared normal; also recorded: does not present a significant exfoliating activity | exfoliation of the upper layers of the stratum corneum (morphology) (0.5% (C2), day 4): appeared normal; also recorded: does not present a significant exfoliating activity | exfoliation of the upper layers of the stratum corneum (morphology) (1% (C1), day 4): light exfoliation of the upper layers | number of cell layers of the SC (1% (C1), day 4): slightly reduced | Exfoliating activity, Result (1% (C1)): 4

CC(O)C(=O)O (stereo not drawn) [Product P3, Lactic acid]
exfoliation of the upper layers of the stratum corneum (morphology) (0.25% (C3), day 4): appeared normal; also recorded: no appreciable exfoliating activity | exfoliation of the upper layers of the stratum corneum (morphology) (0.5% (C2), day 4): very light exfoliation of the upper layers | Exfoliating activity, Result (0.5% (C2)): 2 | exfoliation of the upper layers of the stratum corneum (morphology) (1% (C1), day 4): light exfoliation of the upper layers | number of cell layers of the SC (1% (C1), day 4): slightly reduced | Exfoliating activity, Result (1% (C1)): 4

O=C(O)CO [Product P4, glycolic acid]
exfoliation of the upper layers of the stratum corneum (morphology) (0.25% (C3), day 4): appeared normal; also recorded: no appreciable exfoliating activity | exfoliation of the upper layers of the stratum corneum (morphology) (0.5% (C2), day 4): very light and irregular exfoliation of the upper layers | Exfoliating activity, Result (0.5% (C2)): 3 | exfoliation of the upper layers of the stratum corneum (morphology) (1% (C1), day 4): light and irregular exfoliation of the upper layers; also recorded: slight irregular exfoliation | Exfoliating activity, Result (1% (C1)): 4

O=C(O)C(Cl)(Cl)Cl [Product P6, trichloroacetic acid]
exfoliation of the upper layers of the stratum corneum (morphology) (0.25% (C3), day 4): appeared normal; also recorded: no significant activity in the exfoliation | exfoliation of the upper layers of the stratum corneum (morphology) (0.5% (C2), day 4): light and irregular exfoliation of the upper layers; also recorded: uneven exfoliation | number of cell layers of the SC (0.5% (C2), day 4): slightly reduced | Exfoliating activity, Result (0.5% (C2)): 4 | exfoliation of the upper layers of the stratum corneum (morphology) (1% (C1), day 4): moderate exfoliation of the upper layers | number of cell layers of the SC (1% (C1), day 4): moderately reduced | Exfoliating activity, Result (1% (C1)): 6 | exfoliating activity, comparison of products (especially samples of 1% concentration, day 4): best exfoliating activity
